According to patent publication EP1813636A1, “Polyamine analogs that activate antizyme frameshifting” (MediQuest Therapeutics, Inc., priority 2004, dated 2007):

Columns and labels:
[1] = molecular target: T1, ODC (Homo sapiens, UniProt P11926); settings: inhibition of ODC; cited from earlier work
T1 sequence (P11926 1-461): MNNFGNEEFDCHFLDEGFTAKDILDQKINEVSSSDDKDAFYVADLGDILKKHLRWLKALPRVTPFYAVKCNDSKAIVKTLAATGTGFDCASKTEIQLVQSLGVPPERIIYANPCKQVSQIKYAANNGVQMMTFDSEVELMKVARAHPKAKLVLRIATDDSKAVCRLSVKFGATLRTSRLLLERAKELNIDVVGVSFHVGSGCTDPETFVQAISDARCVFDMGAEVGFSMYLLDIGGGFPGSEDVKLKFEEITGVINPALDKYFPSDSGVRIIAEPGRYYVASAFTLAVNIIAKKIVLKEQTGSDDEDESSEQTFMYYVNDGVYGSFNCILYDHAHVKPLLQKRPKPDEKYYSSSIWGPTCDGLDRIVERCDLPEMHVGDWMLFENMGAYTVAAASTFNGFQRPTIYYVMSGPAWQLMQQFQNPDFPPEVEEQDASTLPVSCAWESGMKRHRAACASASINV

[2] = test system: HEK-293 cells; experiment: rescue from DFMO-induced growth inhibition (6 days, MTS/PMS dye assay); format: cell-based; settings: 25 µM compound, 2.5 mM DFMO
Procedure: The rescue coefficient represents the ratio of cell growth, as measured by O.D., of the test compound with 2.5 mM DFMO versus 2.5 mM DFMO alone.
HEK-293 cells are plated in 96-well assay plates at 1,000 cells per well in 100 µL of medium (DMEM supplemented with 10% fetal bovine serum (Gibco), 1% penicillin, streptomycin and L-glutamine). The cells are incubated overnight at 37°C in an atmosphere of 5% CO2. Compounds are added the next day to a final concentration of 25 µM along with 1 mM aminoguanidine (inhibits serum amine oxidase) and 2.5 mM DFMO in a final volume of 200 µL medium. The positive control contained 25 µM spermidine. The cells are allowed to incubate for 6 days before cell growth is measured by MTS/PMS dye assay (Cell Titer 96 Aqueous Non-Radioactive Cell Proliferation Assay, Promega). […] Therefore, DFMO alone has a value of one. […] If the value is less than one, then the compound is growth inhibitory. If the value is 0, the compound is cytotoxic.

[3] = test system: antizyme; settings: 10 µM; cited from earlier work
[4] = test system: HEK-293 cells; experiment: cells
Procedure: Cell number was determined by MTS/PMS assay from triplicate wells. Cells are plated in 96-well plates such that they would be in log growth for the duration of the assay. The day after plating, the polyamine analogs are added to the cells, and growth, if any, permitted to continue for six days in the presence of 1 mM AG and 1 µM SPD when appropriate. At the end of six days, cell growth is measured by MTS/PMS dye assay (Cell Titer 96 Aqueous Non-Radioactive Cell Proliferation Assay; Promega, Madison, WI).

[5] = test system: HEK-293 cells; experiment: intracellular polyamine levels (HPLC) and cell growth after 6-day incubation; format: cell-based
Procedure: Figure 6 is a graph showing the effect of a 6-day incubation of compound A on HEK-293 cellular polyamine levels and cell growth. All flasks received 1 mM aminoguanidine. Cells were washed, counted, lysed in perchloric acid, dansylated and polyamine levels determined by HPLC. Each value represents the average of triplicate values with the error bars representing standard deviation. Figure 7 illustrates the effect of extracellular compound A on the intracellular concentration of compound A in HEK-293 cells as determined by HPLC. Cells were prepared as in Figure 6. Peak area was normalized by dividing the peak area of the compound divided by the peak area of the internal standard, diaminoheptane. Values represent at least triplicate measurements with the error bars representing standard deviation.
Compound A is further evaluated to determine if it depletes intracellular polyamine levels in HEK-293 cells in a dose-dependent fashion (Fig. 6). […] After overnight incubation at 37°C in an atmosphere of 5% CO2, compound A is added along with 1 mM aminoguanidine. The flasks are then incubated for 6 days at 37°C in an atmosphere of 5% CO2. The cells are harvested by washing twice with ice-cold 1X PBS, trypsinized, counted, and lysed in 0.4 N perchloric acid. Diaminoheptane is used in all dansylation reactions as an internal standard. Peak area is normalized by dividing the peak area of the compound divided by the peak area of the internal standard. The HPLC method for the fluorometric detection of polyamines from the cell extracts is based on the procedure by Kabra (Kabra, P. M. et. al. J. Chromatogr. 380:19-32 (1986)).

[6] = test system: antizyme frameshifting; experiment: dual luciferase reporter assay for antizyme frameshifting in HEK-293 cells; format: cell-based; settings: for frameshift-rescue factor (FRF): %RF multiplied by the inverse of the rescue coefficient
Procedure: Frameshifting can be detected using a dual luciferase reporter system that measures the efficiency of antizyme translational frameshifting (Grentzmann, G. et. al., RNA 4:479-486 (1998); Howard, M. et. al., Genes to Cells 6:931-941 (2001)). Frameshifting efficiency is determined by comparing the ratio of firefly luciferase to renilla luciferase activity in cells transfected in parallel using a control vector containing a constitutive […] (AZ-IF) that measures the in-frame translation efficiency and a vector containing the inducible 0 to +1 frameshift (AZ1) construct. In these constructs, the renilla luciferase gene is upstream of the firefly luciferase gene which are separated by a short cloning sequence containing the portions of antizyme 1 and 2 known to contain the mRNA signals for polyamine stimulated frameshifting. Using a 96-well format, this assay system gives a quantitative measure of the efficiency of the polyamines, polyamine analogs and other compounds to induce frameshifting in a cell-based bioassay. Cells must be pretreated with α-difluoromethylomithine (DFMO), an irreversible inhibitor of ODC, prior to screening to decrease the basal antizyme frameshifting levels and increase the sensitivity to polyamine or compound-mediated stimulation of antizyme frameshifting.
Figure 1 is a tabular representation of a large number of polyamines A-S (25 µM) that were tested for their ability to induce antizyme frameshifting using the dual luciferase reporter assay. The percent relative frameshifting value (% RF) gives a comparison of the ability of a compound to induce frameshifting compared to 25 µM spermidine. The % RF was calculated as follows. The background percent frameshifting activity determined from the 2.5 mM DFMO negative control was subtracted from the percent frameshifting activity for all compounds including the spermidine control. The background corrected frameshifting activity of each compound was then divided by the background corrected frameshifting activity induced by 25 µM spermidine and multiplied by 100. The compounds were also evaluated for their ability to rescue cells from DFMO-induced growth inhibition by determining their rescue coefficient. The rescue coefficient represents the ratio of the cell growth, as measured by O.D., in the presence of the test compound with 2.5 mM DFMO to the growth in the presence of 2.5 mM DFMO alone. The frameshift-rescue factor (FRF) is a useful factor to compare the effectiveness of the various antizyme frameshifters by taking into account their potency for inducing frameshifting and ability to rescue cells from DFMO-induced growth inhibition. The FRF was calculated by multipling the %RF value by the inverse of the rescue coefficient.
Values represent percent frameshifting following transient transfection of an AZ1-IF control and the inducible 0 to +1 AZ1 plasmid construct into HEK-293 cells grown in the presence of 2.5 mM DFMO. The compounds were added to the cells after transfection and incubated overnight before assaying the next day. Each value represents triplicate measurements.
A series of compounds are screened for their ability to induce frameshifting using the dual luciferase reporter assay. HEK-293 cells are plated in white sided, clear-bottomed 96-well assay plates at 15,000 cells per well in 100 µL of medium (DMEM supplemented with 10% fetal bovine serum (Gibco), 1% penicillin, streptomycin and L-glutamine) containing 2.5 mM DFMO. […]

NC/C=C/CN [1,4-diamino-trans-2-butene]
Ki [1]: 2 µM

Nc1ccc(N)cc1 [1,4-phenylenediamine]
Ki [1]: 46 µM

N=C(N)NCCCCN [Agmatine, reference compound]
ability to rescue cells from DFMO-induced growth inhibition [2]: somewhat better than either A or B

CCNCCCCNCCCCNCCCCNCCCCNCC [BE-4-4-4-4, 1,19-bis(ethylamino)-5,10,15-triazanonadecane]
antizyme induction compared with spermine [3]: induce antizyme as well as spermine

NCCCNCc1ccc(CN)cc1 [Compound A]
concentration range of compound A in which 1 µM spermidine rescues cells from growth inhibition ([4]; HEK-293 cells, addition of 1 µM spermidine): 3 to 100 µM | IC50 ([4]; Homo sapiens, HEK293, 144 h, read-out: IC50 for growth inhibition, HEK-293 cells, 6 days, 1 mM aminoguanidine): ~60 µM | cell growth decreasing by ([5]; 10 µM compound A, 6 days): 32% | spermidine levels down by ([5]; 10 µM compound A, 6 days): about 90% | cell growth decreasing by ([5]; 30 µM compound A, 6 days): 38.5% | spermine levels reduced by ([5]; 100 µM compound A, 6 days): 50% | spermine levels, percent of normal ([5]; compound A levels above 30 µM): approximately 50% | frameshift-rescue factor (FRF) ([6]; 25 µM): 120 | EC50 ([6]; Homo sapiens, HEK293, HEK-293 cells, 2.5 mM DFMO, concentration giving 50% of the maximum percent frameshifting (plateau), read-out: EC50 for induction of frameshifting): ~120 µM

NCCCCNCc1ccc(CNCCCN)cc1 [Compound B]
potency in inducing antizyme frameshifting compared with agmatine ([6]; 25 µM, Fig 2): more potent than agmatine | frameshift-rescue factor (FRF) ([6]; 25 µM): 83 | ability to rescue cells from DFMO-induced growth inhibition [2]: neither compound A nor B significantly rescue cells

NCCCN(CCCN)Cc1ccc(CN(CCCN)CCCN)cc1 [Compound S, reference compound]
%RF (percent relative frameshifting) ([6]; 25 µM compound, relative to 25 µM spermidine): 100%

CCNCCCCNCCCCNCCCCNCC [bisethylhomospermine]
antizyme induction compared with spermine [3]: induce antizyme as well as spermine

CCNCCCNCCCNCCCNCC [bisethylnorspermine]
antizyme induction compared with spermine [3]: induce antizyme as well as spermine
